Experimental data from US11814367B2, “Inhibitors of glycogen synthase 1 (GYS1) and methods of use thereof” (Maze Therapeutics, Inc., priority 2021, dated 2023).

Key:
[1] = target: hGYS1 enzyme (recombinant hGYS1/GN1 protein) (Homo sapiens (Human), UniProt P13807); assay: GYS1 coupled enzyme assay (PK/LDH); type: biochemical; details: hGYS1/GN1 50 nM, UDP-Glucose 0.8 mM, G6P 1 mM; geometric mean of at least 2 runs
[2] = target: hGYS2 enzyme (recombinant hGYS2/GN1 protein) (Homo sapiens (Human), UniProt P54840); assay: GYS2 coupled enzyme assay (PK/LDH); type: biochemical; details: geometric mean of at least 2 assay runs on separate days, read-out: Avg_IC50
Sequence of hGYS2 enzyme (recombinant hGYS2/GN1 protein) (P54840 whole entry): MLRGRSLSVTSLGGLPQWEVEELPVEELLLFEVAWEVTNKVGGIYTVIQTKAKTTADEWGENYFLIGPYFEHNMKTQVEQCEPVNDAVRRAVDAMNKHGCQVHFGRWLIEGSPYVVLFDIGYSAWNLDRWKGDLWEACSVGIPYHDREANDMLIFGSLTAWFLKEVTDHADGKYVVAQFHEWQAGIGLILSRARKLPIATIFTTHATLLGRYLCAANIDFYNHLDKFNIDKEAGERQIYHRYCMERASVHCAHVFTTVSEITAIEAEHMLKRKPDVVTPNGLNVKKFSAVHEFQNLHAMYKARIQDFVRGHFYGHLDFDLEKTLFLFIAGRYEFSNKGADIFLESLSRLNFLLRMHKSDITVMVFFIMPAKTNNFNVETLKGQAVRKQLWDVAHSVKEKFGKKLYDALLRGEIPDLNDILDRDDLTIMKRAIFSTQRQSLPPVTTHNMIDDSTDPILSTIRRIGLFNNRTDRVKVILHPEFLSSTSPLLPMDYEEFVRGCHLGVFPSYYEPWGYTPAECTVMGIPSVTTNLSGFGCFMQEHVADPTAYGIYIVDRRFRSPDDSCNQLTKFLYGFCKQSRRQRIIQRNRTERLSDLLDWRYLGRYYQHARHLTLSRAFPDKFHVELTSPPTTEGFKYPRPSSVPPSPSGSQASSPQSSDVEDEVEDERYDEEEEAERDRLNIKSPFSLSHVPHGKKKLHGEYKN
Sequence of hGYS2 enzyme (recombinant hGYS2/GN1 protein) (P46976 whole entry partner): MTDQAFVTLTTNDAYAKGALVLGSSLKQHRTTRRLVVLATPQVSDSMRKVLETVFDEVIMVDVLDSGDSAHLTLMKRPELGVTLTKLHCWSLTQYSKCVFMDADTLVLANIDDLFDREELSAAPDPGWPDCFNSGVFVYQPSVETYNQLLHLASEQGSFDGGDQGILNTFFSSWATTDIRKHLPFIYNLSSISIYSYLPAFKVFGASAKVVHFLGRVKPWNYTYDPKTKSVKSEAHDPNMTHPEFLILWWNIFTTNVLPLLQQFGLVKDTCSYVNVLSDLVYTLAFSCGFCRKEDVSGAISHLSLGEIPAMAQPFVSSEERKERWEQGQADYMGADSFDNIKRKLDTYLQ
In short: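 IC50 came from Hill fits of duplicate percent inhibition, based on control-normalized slopes of 340 nm NADH decline read each minute for 10 min. The reaction held recombinant hGYS2/GN1 (200 nM) with glycogen, UDP-glucose, G6P and PEP, plus PK/LDH coupling at pH 7.5 and 2.5% DMSO.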

Sequence of hGYS1 enzyme (recombinant hGYS1/GN1 protein) (P13807 whole entry): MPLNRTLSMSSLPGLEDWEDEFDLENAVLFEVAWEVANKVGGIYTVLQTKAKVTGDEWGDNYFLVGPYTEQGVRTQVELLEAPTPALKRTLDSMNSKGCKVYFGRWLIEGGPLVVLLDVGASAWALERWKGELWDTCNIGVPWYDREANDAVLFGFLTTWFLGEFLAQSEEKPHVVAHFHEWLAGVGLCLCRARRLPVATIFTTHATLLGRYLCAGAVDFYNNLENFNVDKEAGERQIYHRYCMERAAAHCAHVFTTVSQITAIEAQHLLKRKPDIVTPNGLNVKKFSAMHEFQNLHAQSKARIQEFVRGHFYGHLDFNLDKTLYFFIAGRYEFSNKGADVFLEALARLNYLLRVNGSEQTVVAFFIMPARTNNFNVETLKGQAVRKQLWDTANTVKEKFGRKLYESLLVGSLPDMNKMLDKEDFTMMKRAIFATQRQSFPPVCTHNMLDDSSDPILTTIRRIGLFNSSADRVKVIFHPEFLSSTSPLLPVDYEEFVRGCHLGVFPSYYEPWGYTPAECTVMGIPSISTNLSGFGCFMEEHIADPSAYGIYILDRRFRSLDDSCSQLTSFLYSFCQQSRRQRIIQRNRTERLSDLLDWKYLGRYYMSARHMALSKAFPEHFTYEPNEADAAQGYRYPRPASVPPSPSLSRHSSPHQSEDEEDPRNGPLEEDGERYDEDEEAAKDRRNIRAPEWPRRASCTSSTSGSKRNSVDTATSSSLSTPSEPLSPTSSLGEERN
Sequence of hGYS1 enzyme (recombinant hGYS1/GN1 protein) (P46976 whole entry partner): as the sequence (P46976 whole entry partner) above

Row | IC50 [1] [nM] | IC50 [2] [nM] | SMILES
1 | 235 | > 100000 | CC(=O)N1CCC(C(C)C(=O)N2C[C@H](F)C[C@H]2C(=O)N[C@@H](c2ccccc2)c2ccc(C(C)C)cc2)CC1 (stereo partly drawn) [Compound 180, (2S,4R)-1-[2-(1-acetylpiperidin-4-yl)propanoyl]-4-fluoro-N-[(S)-phenyl[4-(propan-2-yl)phenyl]methyl]pyrrolidine-2-carboxamide]
2 | 26 | > 100000 | CC(C)c1ccc([C@@H](NC(=O)[C@@H]2C[C@@H](F)CN2C(=O)C(O)C(C)C)c2ccccc2)cc1 (stereo partly drawn) [Compound 185, (2S,4R)-4-fluoro-1-(2-hydroxy-3-methylbutanoyl)-N-[(S)-phenyl[4-(propan-2-yl)phenyl]methyl]pyrrolidine-2-carboxamide]
3 | 73 | > 100000 | CC(C)c1ccc([C@@H](NC(=O)[C@@H]2C[C@@H](F)CN2C(=O)CNC(=O)C(F)(F)F)c2ccccc2)cc1 [Compound 187, (2S,4R)-4-fluoro-N-[(S)-phenyl[4-(propan-2-yl)phenyl]methyl]-1-[2-(2,2,2-trifluoroacetamido)acetyl] pyrrolidine-2-carboxamide]
4 | 237 | > 100000 | CC(C)c1ccc([C@@H](NC(=O)[C@@H]2C[C@@H](F)CN2C(=O)CC#N)c2ccccc2)cc1 [Compound 188, (2S,4R)-1-(2-cyanoacetyl)-4-fluoro-N-[(S)-phenyl[4-(propan-2-yl)phenyl]methyl]pyrrolidine-2-carboxamide]
5 | 95 | > 100000 | CC(=O)N(CC(N)=O)CC(=O)N1C[C@H](F)C[C@H]1C(=O)N[C@@H](c1ccccc1)c1ccc(C(C)C)cc1 [Compound 189, (2S,4R)-1-{2-[N-(carbamoylmethyl)acetamido]acetyl}-4-fluoro-N-[(S)-phenyl[4-(propan-2-yl)phenyl]methyl]pyrrolidine-2-carboxamide]
6 | 220 | > 100000 | CC(=O)NCCC(=O)N1C[C@H](F)C[C@H]1C(=O)N[C@@H](c1ccccc1)c1ccc(C(C)C)cc1 [Compound 190, (2S,4R)-1-(3-acetamidopropanoyl)-4-fluoro-N-[(S)-phenyl[4-(propan-2-yl)phenyl]methyl]pyrrolidine-2-carboxamide]
7 | 131 | > 100000 | CC(=O)NCCCC(=O)N1C[C@H](F)C[C@H]1C(=O)N[C@@H](c1ccccc1)c1ccc(C(C)C)cc1 [Compound 191, (2S,4R)-1-(4-acetamidobutanoyl)-4-fluoro-N-[(S)-phenyl[4-(propan-2-yl)phenyl]methyl]pyrrolidine-2-carboxamide]
8 | 76 | > 100000 | CC(C)c1ccc([C@@H](NC(=O)[C@@H]2C[C@@H](F)CN2C(=O)CN2CCCC2=O)c2ccccc2)cc1 [Compound 192, (2S,4R)-4-fluoro-1-[2-(2-oxopyrrolidin-1-yl)acetyl]-N-[(S)-phenyl[4-(propan-2-yl)phenyl]methyl]pyrrolidine-2-carboxamide]
9 | 303 | > 100000 | CC(C)c1ccc([C@@H](NC(=O)[C@@H]2C[C@@H](F)CN2C(=O)CNC2(C)COC2)c2ccccc2)cc1 [Compound 193, (2S,4R)-4-fluoro-1-{2-[(3-methyloxetan-3-yl)amino]acetyl}-N-[(S)-phenyl[4-(propan-2-yl)phenyl]methyl]pyrrolidine-2-carboxamide]
10 | 27 | > 100000 | CC(C)c1ccc([C@@H](NC(=O)[C@@H]2C[C@@H](F)CN2C(=O)Cc2nnc[nH]2)c2ccccc2)cc1 [Compound 194, (2S,4R)-4-fluoro-N-[(S)-phenyl[4-(propan-2-yl)phenyl]methyl]-1-[2-(4H-1,2,4-triazol-3-yl)acetyl]pyrrolidine-2-carboxamide]
11 | 44 | > 100000 | CC(C)c1ccc([C@@H](NC(=O)[C@@H]2C[C@@H](F)CN2C(=O)Cc2cnco2)c2ccccc2)cc1 [Compound 195, (2S,4R)-4-fluoro-1-[2-(1,3-oxazol-5-yl)acetyl]-N-[(S)-phenyl[4-(propan-2-yl)phenyl]methyl]pyrrolidine-2-carboxamide]
12 | 143 | > 100000 | CC(=O)N[C@@H](CCC(=O)O)C(=O)N1C[C@H](F)C[C@H]1C(=O)N[C@@H](c1ccccc1)c1ccc(C(C)C)cc1 [Compound 196, (4S)-4-acetamido-5-[(2S,4R)-4-fluoro-2-{[(S)-phenyl[4-(propan-2-yl)phenyl]methyl]carbamoyl}pyrrolidin-1-yl]-5-oxopentanoic acid]
13 | 128 | > 100000 | CC(=O)N[C@H](CCC(=O)O)C(=O)N1C[C@H](F)C[C@H]1C(=O)N[C@@H](c1ccccc1)c1ccc(C(C)C)cc1 [Compound 197, (4R)-4-acetamido-5-[(2S,4R)-4-fluoro-2-{[(S)-phenyl[4-(propan-2-yl)phenyl]methyl]carbamoyl}pyrrolidin-1-yl]-5-oxopentanoic acid]
14 | 862 | > 100000 | CC(C)c1ccc([C@@H](NC(=O)[C@@H]2CCCN2C(=O)C2CC2)c2ccccc2)cc1 [Compound 203, (2S)-1-cyclopropanecarbonyl-N-[(S)-phenyl[4-(propan-2-yl)phenyl]methyl]pyrrolidine-2-carboxamide]
15 | 3530 | > 100000 | CC(=O)N1C[C@@H](O)C[C@H]1C(=O)N[C@@H](c1ccccc1)c1ccc(C(C)C)cc1 [Compound 204, (2S,4S)-1-acetyl-4-hydroxy-N-[(S)-phenyl[4-(propan-2-yl)phenyl]methyl]pyrrolidine-2-carboxamide]
16 | 3740 | > 100000 | CC(=O)N1C[C@H](O)C[C@H]1C(=O)N[C@@H](c1ccccc1)c1ccc(C(C)C)cc1 [Compound 205, (2S,4R)-1-acetyl-4-hydroxy-N-[(S)-phenyl[4-(propan-2-yl)phenyl]methyl]pyrrolidine-2-carboxamide]
17 | 2480 | > 100000 | CC(=O)N1CC[C@H](O)[C@H]1C(=O)N[C@@H](c1ccccc1)c1ccc(C(C)C)cc1 [Compound 206, (2S,3S)-1-acetyl-3-hydroxy-N-[(S)-phenyl[4-(propan-2-yl)phenyl]methyl]pyrrolidine-2-carboxamide]
18 | 387 | > 100000 | CC(=O)N1C[C@H](F)C[C@H]1C(=O)N[C@@H](c1ccccc1)c1ccc(C(C)C)cc1 [Compound 207, (2S,4R)-1-acetyl-4-fluoro-N-[(S)-phenyl[4-(propan-2-yl)phenyl]methyl]pyrrolidine-2-carboxamide]
19 | 113 | > 100000 | CC(=O)N[C@@H](CC(N)=O)C(=O)N1C[C@H](F)C[C@H]1C(=O)N[C@@H](c1ccccc1)c1ccc(C(C)C)cc1 [Compound 208, (2S,4R)-1-[(2S)-3-carbamoyl-2-acetamidopropanoyl]-4-fluoro-N-[(S)-phenyl[4-(propan-2-yl)phenyl]methyl]pyrrolidine-2-carboxamide]
20 | 91 | > 100000 | CC(=O)N[C@H](CC(N)=O)C(=O)N1C[C@H](F)C[C@H]1C(=O)N[C@@H](c1ccccc1)c1ccc(C(C)C)cc1 [Compound 209, (2S,4R)-1-[(2R)-3-carbamoyl-2-acetamidopropanoyl]-4-fluoro-N-[(S)-phenyl[4-(propan-2-yl)phenyl]methyl]pyrrolidine-2-carboxamide]
21 | 107 | > 100000 | CC(C)c1ccc([C@@H](NC(=O)[C@@H]2CCCN2C(=O)CNC(=O)OC(C)(C)C)c2ccccc2)cc1 [Compound 210, tert-butyl N-{2-oxo-2-[(2S)-2-{[(S)-phenyl[4-(propan-2-yl)phenyl]methyl]carbamoyl}pyrrolidin-1-yl]ethyl}carbamate]
